According to ChEMBL document CHEMBL5137093, “Improving Drug Delivery While Tailoring Prodrug Activation to Modulate Cmax and Cmin by Optimization of (Carbonyl)oxyalkyl Linker-Based Prodrugs of Atazanavir” (J Med Chem, 2022):

How the values were obtained:
[1] = Aqueous stability of the compound in phosphate buffer at pH 6.5 assessed as compound half life measured after 24 hrs by UPLC analysis; type: physicochemical; conditions: buffer, pH 6.5, 24 h, 24 h
[2] = Aqueous solubility of compound at pH 1 by UPLC analysis; type: physicochemical; conditions: buffer
[3] = Aqueous solubility of compound at pH 4 by UPLC analysis; type: physicochemical; conditions: buffer
[4] = Cmax in Sprague-Dawley rat at 3 ml/kg,po measured upto 24 hrs by UPLC-MS/MS analysis; type: ADME; parameters: dose 3 ml/kg, time < 24 hrs, route po; conditions: Sprague-Dawley, in vivo, 3 ml/kg
[5] = Tmax in Sprague-Dawley rat at 3 ml/kg,po measured upto 24 hrs by UPLC-MS/MS analysis; type: ADME; conditions: Sprague-Dawley, in vivo, read-out: Tmax
[6] = AUClast in Sprague-Dawley rat at 3 ml/kg,po measured upto 24 hrs by UPLC-MS/MS analysis; type: ADME; parameters: time < 24 hrs, dose 3 ml/kg, route po; conditions: Sprague-Dawley, in vivo, 3 ml/kg
[7] = Relative Cmax ratio of Atazanavir in Sprague-Dawley rat at 3 ml/kg,po measured upto 24 hrs by UPLC-MS/MS analysis; type: ADME; conditions: in vivo
[8] = Relative AUC ratio of Atazanavir in Sprague-Dawley rat at 3 ml/kg,po measured upto 24 hrs by UPLC-MS/MS analysis; type: ADME; conditions: in vivo
[9] = Fold ratio of total AUC of Atazanavir in Sprague-Dawley rat at 3 ml/kg,po measured upto 24 hrs by UPLC-MS/MS analysis; type: ADME; conditions: in vivo
[10] = Ratio of Cmax/Cmin of Atazanavir in Sprague-Dawley rat at 3 ml/kg,po measured after 24 hrs by UPLC-MS/MS analysis; type: ADME; conditions: in vivo
[11] = Ratio of AUC of Atazanavir in Sprague-Dawley rat at 3 ml/kg,po measured upto 24 hrs by UPLC-MS/MS analysis; type: ADME; conditions: in vivo
[12] = Half life in rat hepatocyte measured upto 120 mins by UPLC-MS/MS analysis; type: ADME, cell-based; conditions: hepatocytes
[13] = Half life in rat hepatocyte measured upto 120 mins in presence of ABT by UPLC-MS/MS analysis; type: ADME, cell-based; conditions: hepatocytes, with ABT
[14] = Half life in rat hepatocyte measured upto 120 mins in presence of PMSF by UPLC-MS/MS analysis; type: ADME, cell-based; conditions: hepatocytes, with PMSF
[15] = Half life in rat hepatocyte measured upto 120 mins in presence of PMSF and ABT by UPLC-MS/MS analysis; type: ADME, cell-based; conditions: hepatocytes, with PMSF and ABT
[16] = Metabolic stability in rat liver microsomes assessed as half life; type: ADME, Microsome
[17] = Metabolic stability in dog liver microsomes assessed as half life; type: ADME, Canis lupus familiaris, Microsome
[18] = Metabolic stability in monkey liver microsomes assessed as half life; type: ADME, Macaca mulatta, Microsome; conditions: rhesus monkey
[19] = Metabolic stability in human liver microsomes assessed as half life; type: ADME, Microsome
[20] = Metabolic stability in rat intestine microsomes assessed as half life; type: ADME, Microsome
[21] = Metabolic stability in dog intestine microsomes assessed as half life; type: ADME, Canis lupus familiaris, Microsome
[22] = Metabolic stability in monkey intestine microsomes assessed as half life; type: ADME, Macaca mulatta, Microsome; conditions: rhesus monkey
[23] = Metabolic stability in human intestine microsomes assessed as half life; type: ADME, Microsome
[24] = Metabolic stability in rat liver microsomes assessed as half life in presence of NADPH; type: ADME, Microsome
[25] = Metabolic stability in dog liver microsomes assessed as half life in presence of NADPH; type: ADME, Canis lupus familiaris, Microsome
[26] = Metabolic stability in monkey liver microsomes assessed as half life in presence of NADPH; type: ADME, Macaca mulatta, Microsome; conditions: rhesus monkey
[27] = Metabolic stability in human liver microsomes assessed as half life in presence of NADPH; type: ADME, Microsome
[28] = Metabolic stability in rat intestine microsomes assessed as half life in presence of NADPH; type: ADME, Microsome
[29] = Metabolic stability in dog intestine microsomes assessed as half life in presence of NADPH; type: ADME, Canis lupus familiaris, Microsome
[30] = Metabolic stability in monkey intestine microsomes assessed as half life in presence of NADPH; type: ADME, Macaca mulatta, Microsome; conditions: rhesus monkey
[31] = Metabolic stability in human intestine microsomes assessed as half life in presence of NADPH; type: ADME, Microsome
[32] = Cmax in Sprague-Dawley rat at 30 ml/kg,po measured upto 24 hrs by UPLC-MS/MS analysis; type: ADME; parameters: time < 24 hrs, dose 30 ml/kg, route po; conditions: in vivo
[33] = Tmax in Sprague-Dawley rat at 30 ml/kg,po measured upto 24 hrs by UPLC-MS/MS analysis; type: ADME; conditions: in vivo
[34] = AUClast in Sprague-Dawley rat at 30 ml/kg,po measured upto 24 hrs by UPLC-MS/MS analysis; type: ADME; parameters: time < 24 hrs, dose 30 ml/kg, route po; conditions: in vivo
[35] = Relative Cmax ratio of Atazanavir in Sprague-Dawley rat at 30 ml/kg,po measured upto 24 hrs by UPLC-MS/MS analysis; type: ADME; conditions: in vivo
[36] = Relative AUC ratio of Atazanavir in Sprague-Dawley rat at 30 ml/kg,po measured upto 24 hrs by UPLC-MS/MS analysis; type: ADME; conditions: in vivo
[37] = Fold ratio of total AUC of Atazanavir in Sprague-Dawley rat at 30 ml/kg,po measured upto 24 hrs by UPLC-MS/MS analysis; type: ADME; conditions: in vivo
[38] = Ratio of Cmax/Cmin of Atazanavir in Sprague-Dawley rat at 30 ml/kg,po measured after 24 hrs by UPLC-MS/MS analysis; type: ADME; conditions: in vivo
[39] = Ratio of AUC of Atazanavir in Sprague-Dawley rat at 30 ml/kg,po measured upto 24 hrs by UPLC-MS/MS analysis; type: ADME; conditions: in vivo
[40] = Cmax in Sprague-Dawley rat at 1 ml/kg,iv measured upto 24 hrs by UPLC-MS/MS analysis; type: ADME; parameters: dose 1 ml/kg, time < 24 hrs, route iv; conditions: in vivo
[41] = AUClast in Sprague-Dawley rat at 1 ml/kg,iv measured upto 24 hrs by UPLC-MS/MS analysis; type: ADME; parameters: dose 1 ml/kg, time < 24 hrs, route iv; conditions: in vivo
[42] = Cmin in Sprague-Dawley rat at 1 ml/kg,iv measured after 24 hrs by UPLC-MS/MS analysis; type: ADME; conditions: in vivo, read-out: Cmin
[43] = Clearance in Sprague-Dawley rat at 1 ml/kg,iv measured upto 24 hrs by UPLC-MS/MS analysis; type: ADME; conditions: in vivo
[44] = Half life in Sprague-Dawley rat at 1 ml/kg,iv measured upto 24 hrs by UPLC-MS/MS analysis; type: ADME; conditions: in vivo
[45] = Volume of distribution at steady state in Sprague-Dawley rat at 1 ml/kg,iv measured upto 24 hrs by UPLC-MS/MS analysis; type: ADME; conditions: in vivo, read-out: Vdss
[46] = Relative Cmax ratio of Atazanavir in Sprague-Dawley rat at 1 ml/kg,iv measured upto 24 hrs by UPLC-MS/MS analysis; type: ADME; conditions: in vivo
[47] = Relative AUC ratio of Atazanavir in Sprague-Dawley rat at 1 ml/kg,iv measured upto 24 hrs by UPLC-MS/MS analysis; type: ADME; conditions: in vivo
[48] = Fold ratio of total AUC of Atazanavir in Sprague-Dawley rat at 1 ml/kg,iv measured upto 24 hrs by UPLC-MS/MS analysis; type: ADME; conditions: in vivo
[49] = Ratio of Cmax/Cmin of Atazanavir in Sprague-Dawley rat at 1 ml/kg,iv measured after 24 hrs by UPLC-MS/MS analysis; type: ADME; conditions: in vivo
[50] = Ratio of AUC of Atazanavir in Sprague-Dawley rat at 1 ml/kg,iv measured upto 24 hrs by UPLC-MS/MS analysis; type: ADME; conditions: in vivo

SMILES: COC(=O)N[C@H](C(=O)N[C@@H](Cc1ccccc1)[C@H](CN(Cc1ccc(-c2ccccn2)cc1)NC(=O)[C@@H](NC(=O)OC)C(C)(C)C)OC(=O)OC(OC(=O)[C@@H](N)C(C)C)C(C)C)C(C)(C)C (stereo in doubt; 3s)
- t1/2 [1]: 4.9 h
- solubility [2]: > 2100 µg/mL
- solubility [3]: > 2300 µg/mL
- Cmax [4]: 19 nM
- Tmax [5]: 0.6 h
- AUC(0-t) at 24 h [6]: 0.044 µM·h
- Ratio [7]: 3.8
- Ratio [8]: 6.7
- Ratio [9]: 6.8
- Ratio [10]: 204.8
- Ratio [11]: 0.02
- half-life [12]: 0.35 h
- half-life [13]: 0.433 h
- half-life [14]: 1.43 h
- half-life [15]: 1.43 h
- half-life [16]: 3.73 h
- half-life [17]: 4.82 h
- half-life [18]: 2.45 h
- half-life [19]: 2.82 h
- half-life [20]: > 2 h
- half-life [21]: > 2 h
- half-life [22]: > 2 h
- half-life [23]: 1.83 h
- half-life [24]: 0.833 h
- half-life [25]: 9 min
- half-life [26]: 9 min
- half-life [27]: 1.18 h
- half-life [28]: 1.78 h
- half-life [29]: 0.883 h
- half-life [30]: 0.4 h
- half-life [31]: 0.967 h
- Cmax [32]: 189 nM
- Tmax [33]: 0.8 h
- AUC(0-t) at 24 h [34]: 0.601 µM·h
- Ratio [35]: 2.1
- Ratio [36]: 1.32
- Ratio [37]: 1.35
- Ratio [38]: 329.4
- Ratio [39]: 0.02
- Cmax [40]: 151 nM
- AUC(0-t) at 24 h [41]: 0.17 µM·h
- concentration at 24 h [42]: 2 nM
- clearance [43]: 102 mL/min/kg
- half-life [44]: 6 h
- Vd [45]: 35 L/kg
- Ratio [46]: 2.07
- Ratio [47]: 7
- Ratio [48]: 7.3
- Ratio [49]: 1040.4
- Ratio [50]: 0.04
